Reference: patent US20040191833A1, “Selective activation of cellular activities mediated through a common toll-like receptor” (3M Innovative Properties Company, priority 2003, published 2004)

Columns and labels:
[1] = molecular target: T1, human TLR7 (Homo sapiens, UniProt Q9NYK1); assay: TLR7 activation in Namalwa cells (IFN-α1 promoter luciferase reporter, N-TLR7/N-vector); type: cell-based; settings: final IRM concentration 10 μM, 18 hours, normalized to the DMSO without compound control
T1 construct: expressed in transfected cells; host or cells: Namalwa cells (ATCC CRL-1432), pCI-neo vector, electroporated, G418 selected, with pIFN-α1-luc reporter
T1 sequence (Q9NYK1 27-1049): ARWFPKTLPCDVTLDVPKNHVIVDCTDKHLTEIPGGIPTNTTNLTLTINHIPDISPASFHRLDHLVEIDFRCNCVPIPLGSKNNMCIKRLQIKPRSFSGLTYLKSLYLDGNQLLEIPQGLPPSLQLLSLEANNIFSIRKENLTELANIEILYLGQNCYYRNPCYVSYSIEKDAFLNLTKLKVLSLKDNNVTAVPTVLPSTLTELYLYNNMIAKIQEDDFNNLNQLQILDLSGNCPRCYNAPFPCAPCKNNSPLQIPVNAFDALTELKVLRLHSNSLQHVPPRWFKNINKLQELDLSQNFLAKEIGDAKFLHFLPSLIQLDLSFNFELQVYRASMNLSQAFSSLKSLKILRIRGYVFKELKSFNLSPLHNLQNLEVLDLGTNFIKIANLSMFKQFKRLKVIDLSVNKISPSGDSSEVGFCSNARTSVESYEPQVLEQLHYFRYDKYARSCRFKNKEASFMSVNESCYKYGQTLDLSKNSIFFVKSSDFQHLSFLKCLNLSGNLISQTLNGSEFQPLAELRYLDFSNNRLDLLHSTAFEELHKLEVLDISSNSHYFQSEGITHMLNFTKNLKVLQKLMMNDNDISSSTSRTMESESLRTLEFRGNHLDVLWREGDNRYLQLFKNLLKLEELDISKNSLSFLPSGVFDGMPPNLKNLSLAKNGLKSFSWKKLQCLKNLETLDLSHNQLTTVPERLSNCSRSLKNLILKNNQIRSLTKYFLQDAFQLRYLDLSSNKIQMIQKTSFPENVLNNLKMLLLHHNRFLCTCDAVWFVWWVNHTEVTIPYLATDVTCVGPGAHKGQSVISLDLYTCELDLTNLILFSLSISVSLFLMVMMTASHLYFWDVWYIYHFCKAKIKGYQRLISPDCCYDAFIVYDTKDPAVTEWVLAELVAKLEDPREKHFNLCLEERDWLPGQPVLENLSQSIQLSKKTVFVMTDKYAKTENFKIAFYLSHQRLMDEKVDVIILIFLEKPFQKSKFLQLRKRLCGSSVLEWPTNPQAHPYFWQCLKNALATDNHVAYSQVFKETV
Experimental: (§1) In one embodiment, exemplified in Example 1, selective modulation of TLR7-mediated NF-κB activation and TLR7-mediated IFN-α1 induction were assayed. NF-κB activation was measured in genetically modified HEK293 cells (H-TLR7) by detecting TLR7-mediated NF-κB-dependent transcription of a luciferase reporter. IFN-α1 induction was measured in genetically modified Namalwa cells (N-TLR7) by detecting TLR-mediated IFN-α1-induced transcription of a luciferase reporter. Results are shown in Table 2 and are expressed as the fold increase in TLR7-mediated luciferase signal—(H-TLR7/H-vector) and (N-TLR7/N-vector), respectively—normalized to a control in which the cells were treated with vehicle that contained no IRM compound. In this assay, a compound was considered to induce the TLR7-mediated cellular activity if the compound generated at least a two-fold increase in the luciferase signal compared to the vector control.
Unless otherwise indicated, all incubations were performed at 37° C. with 5% CO2 at 98% humidity.
Culture medium was prepared from complete RPMI 1640 medium (BioSource International, Inc., Camarillo, Calif.). Fetal bovine serum (Atlas Biologicals, Inc., Ft. Collins, Colo.) was added to a final concentration of 7.5% (vol/vol); L-glutamine (BioSource International, Inc.) was added to 5 mM; and sodium pyruvate (BioSource International, Inc.) was added to 1 mM.
Namalwa cells were grown by incubation in culture medium overnight. Cells were harvested by centrifugation in a tabletop centrifuge (1200 RPM for 5 minutes), and then resuspended in phosphate buffered sucrose to a concentration of 1.3×10^7 cells/mL.
For each transfection, a 750 μL aliquot of the cell suspension was placed in an electroporation cuvette with 4 mm gaps. Each aliquot received transfection DNA: 10 μg of pGL3-Enhancing vector (Promega Corp., Madison, Wis.) containing the human IFN-α1 promoter cloned into the BglII site (pIFN-α1-luc), and 10 μg of pCI-neo mammalian expression vector (Promega Corp.) either (1) unmodified (N-vector) or (2) containing an expressible human TLR7 gene (N-TLR7). The cell and vector mixtures were incubated at room temperature for 5 minutes. The cells were electroporated using a BioRad Gene Pulser (BioRad Laboratories, Hercules, Calif.) set to at 500 μF capacitance and […], then incubated at room temperature for 5 minutes.
The electroporated cells were suspended in 10 mL of culture medium and incubated overnight. Dead cells and debris were removed after 24 hours using a MACS Dead Cell Removal kit (Miltenyi Biotec, Auburn, Calif.). Cells were resuspended in 10 mL of culture medium and incubated for an additional 24 hours.
Transfected cells were selected by adding G418 (Promega Corp., Madison, Wisc.) to a final concentration of 1 mg/mL and incubating the cells for seven days.
The selected transfected cells were counted and resuspended to a concentration of 1×10^6 cell per mL in culture medium. 100 μl aliquots of cells were placed in the wells of a white-walled, white-bottomed 96-well plate (Corning, Inc. Corning, N.Y.). 1.0 μL of an IRM compound from Table 1 (prepared at 1 mM in 100% DMSO) was added to some cell aliquots so that the final concentration of IRM compound was 10 μM. As a positive control, some cell aliquots were incubated with Sendai virus instead of IRM compound. As a negative control, some cell aliquots were incubated with DMSO without IRM compound. In all cases, the cells were incubated for 18 hours.
The plates were equilibrated to room temperature before 1 volume of reconstituted LucLight Plus (Packard Instruments, Meriden, Conn.) was added to each aliquot of cells. Each well of the plate was read on an LJL Analyst (LJL Biosystems, Inc., Sunnyvale, Calif.) set with a 5 minute dark adapt.
(§2) The data are expressed as fold increase in TLR7-mediated luciferase signal—(H-TLR7/H-vector) and (N-TLR7/N-vector), respectively—normalized to the DMSO without compound control.

[2] = molecular target: T1, human TLR7; assay: TLR7 activation in HEK293 cells (NF-kB-luc luciferase reporter, H-TLR7/H-vector); type: cell-based; settings: final IRM concentration 10 μM, 16 hours, normalized to the DMSO without compound control
Experimental: as §1
HEK293 medium was prepared from 90% Minimum Essential Medium (MEM) with 2 mM L-glutamine and Earle's Balanced Salt Solution (Invitrogen Corp., Rockville, Md.) adjusted to contain 1.5 g/L sodium bicarbonate, 0.1 mM non-essential amino acids, and 1.0 mM sodium pyruvate; 10% heat-inactivated fetal calf serum. HEK293 cells were cultured by incubating cells in HEK293 medium overnight at 37° C, 8% CO2.
Twenty-four hours before transfection, HEK293 cells were adhered to a 10 cm dish (Corning 430167, Corning Inc., Corning, N.Y.) at 37° C., 8% CO2. The cells were co-transfected with (1) pIRES (BD Biosciences Clontech, Palo Alto, Calif.) either (a) unmodified (H-vector), or (b) containing an expressible human TLR7 gene (H-TLR7), and (2) NF-kB-luc reporter (Stratagene, La Jolla, Calif.) in a 10:1 ratio with Fugene 6 transfection reagent (Roche Diagnostics Corp., Indianapolis, Ind.) following the manufacturer's instructions. The plates were incubated for 24 hours following transfection and then selected in G-418 (400 μg/mL) for two weeks. The G-418-resistant cells containing either the expressible TLR7 gene or the empty vector were expanded in HEK293 medium supplemented with G-418 for stimulation experiments.
The transfected cells were plated in white opaque 96 well plates (Costar 3917, Corning Inc., Corning, N.Y.) at a concentration of 5×10^4 cells per well in 100 μL of HEK293 media and incubated at 37° C., 8% CO2 for 4 hours. The cells were stimulated with 1 μL of IRM compounds at 1 mM in DMSO (final IRM concentration of 10 μM) or 1 μL DMSO as a control. The plates were then incubated an additional 16 hours at 37° C., 5% CO2. The luciferase signal was read using the LucLite kit (Packard Instrument Co., Meriden, Conn.). Luminescence was measured on an LMAX luminometer (Molecular Devices Corp., Sunnyvale, Calif.).
as §2

`CCc1nc2c(N)nc3ccccc3c2n1CCOCCNC(=O)Nc1ccccc1` [IRM20, N-{2-[2-(4-amino-2-ethyl-1H-imidazo[4,5-c]quinolin-1-yl)ethoxy]ethyl}-N′-phenylurea] was tested, and the “N-TLR7: fold increase in TLR7-mediated luciferase signal (N-TLR7/N-vector), IFN-α1 promoter reporter” value (from here on “N-TLR7: fold increase”) [1] was 3.7 fold and the “H-TLR7: fold increase in TLR7-mediated luciferase signal (H-TLR7/H-vector), NF-κB-dependent reporter” value (“H-TLR7: fold increase” below) [2] was 0.8 fold.
In the case of `CCCCc1nc2c(N)nc3ccccc3c2n1CCCNC(=O)c1cc2ccccc2cn1` [IRM3, N-[3-(4-amino-2-butyl-1H-imidazo[4,5-c]quinolin-1-yl)propyl]isoquinoline-3-carboxamide], the “N-TLR7: fold increase” value [1] is reported as 1.9 fold and the “H-TLR7: fold increase” value [2] is reported as 4.2 fold.
`COCCc1nc2c(N)nc3ccccc3c2n1CC(C)(C)CNC(=O)Nc1ccccc1` [IRM4, N-{3-[4-amino-2-(2-methoxyethyl)-1H-imidazo[4,5-c]quinolin-1-yl]-2,2-dimethylpropyl}-N′-phenylurea] was tested, and the “N-TLR7: fold increase” value [1] was 1.6 fold and the “H-TLR7: fold increase” value [2] was 15.0 fold.
`CCCCCc1nc2c(N)nc3ccccc3c2n1CCCCNS(C)(=O)=O` [IRM14, N-[4-(4-amino-2-pentyl-1H-imidazo[4,5-c]quinolin-1-yl)butyl]methanesulfonamide] was tested, and the “N-TLR7: fold increase” value [1] was 3.3 fold and the “H-TLR7: fold increase” value [2] was 0.9 fold.
In the case of `Nc1nc2ccccc2c2c1ncn2CCOCC#Cc1csc(C=O)c1` [IRM1, 4-{3-[2-(4-amino-1H-imidazo[4,5-c]quinolin-1-yl)ethoxy]-1-propynyl}-2-thiophenecarboxaldehyde], the “N-TLR7: fold increase” value [1] is reported as 1.6 fold and the “H-TLR7: fold increase” value [2] is reported as 13.2 fold.
In the case of `COCCc1nc2c(N)nc3ccccc3c2n1CCCCCCCCNC(=O)Nc1ccccc1` [IRM2, N-{8-[4-amino-2-(2-methoxyethyl)-1H-imidazo[4,5-c]quinolin-1-yl]octyl}-N′-phenylurea], the “N-TLR7: fold increase” value [1] is reported as 1.5 fold and the “H-TLR7: fold increase” value [2] is reported as 4.1 fold.
In the case of `Cc1nc2c(N)nc3ccccc3c2n1CCOCCNS(C)(=O)=O` [IRM19, N-{2-[2-(4-amino-2-methyl-1H-imidazo[4,5-c]-1-yl)ethoxy]ethyl}methanesulfonamide], the “N-TLR7: fold increase” value [1] is reported as 3.3 fold and the “H-TLR7: fold increase” value [2] is reported as 0.9 fold.
With `CCOCc1nc2c(N)nc3ccccc3c2n1CC(C)C` [IRM22, 2-(ethoxymethyl)-1-(2-methylpropyl)-1H-imidazo[4,5-c]quinolin-4-amine] the “N-TLR7: fold increase” value [1] was 2.2 fold and the “H-TLR7: fold increase” value [2] was 5.5 fold.
With `COCCc1nc2c(N)nc3ccccc3c2n1CCCNS(=O)(=O)c1ccccc1` [IRM7, N-{3-[4-amino-2-(2-methoxyethyl)-1H-imidazo[4,5-c]-1-yl]propyl}benzenesulfonamide] the “N-TLR7: fold increase” value [1] was 1.6 fold and the “H-TLR7: fold increase” value [2] was 4.7 fold.
`Nc1nc2ccccc2c2c1ncn2CCOCCCc1cncnc1` [IRM12, 1-{2-[3-(5-pyrimidinyl)propoxy]ethyl}-1H-imidazo[4,5-c]quinolin-4-amine] was tested, and the “N-TLR7: fold increase” value [1] was 2.6 fold and the “H-TLR7: fold increase” value [2] was 0.6 fold.
For `CCCCc1nc2c(N)nc(C)c(C)c2n1CCCCNC(=O)c1ccccc1` [IRM13, N-[4-(4-amino-2-butyl-6,7-dimethyl-1H-imidazo[4,5-c]pyridin-1-yl)butyl]benzamide], the “N-TLR7: fold increase” value [1] was 2.6 fold and the “H-TLR7: fold increase” value [2] was 1.0 fold.
In the case of `CCC(C)NC(=S)NCCn1c(CCOC)nc2c(N)nc3ccccc3c21` (stereo not drawn) [IRM24, N-{2-[4-amino-2-(2-methoxyethyl)-1H-imidazo[4,5-c]quinolin-1-yl]ethyl}-N′-sec-butylthiourea], the “N-TLR7: fold increase” value [1] is reported as 3.2 fold and the “H-TLR7: fold increase” value [2] is reported as 7.9 fold.
